Tested on: MV-4-11 cells
Assay: Gene expression microarray analysis (Affymetrix PrimeView) and GSEA
Format: cell-based, human
Design: RFU PODN (11730768_x_at) / Fold change /veh PODN (11730768_x_at) / RFU LINC00158 (11744669_a_at) / Fold change /veh LINC00158 (11744669_a_at) / RFU DUSP10 (11751237_a_at) / Fold change /veh DUSP10 (11751237_a_at) / RFU ID3 (11757404_x_at) / Fold change /veh ID3 (11757404_x_at) / RFU PLEKHG5 (11737974_s_at) / Fold change /veh PLEKHG5 (11737974_s_at) / RFU LRRC4B (11730491_at) / Fold change /veh LRRC4B (11730491_at) / RFU GIMAP4 (11747438_a_at) / Fold change /veh GIMAP4 (11747438_a_at) / RFU KRT8 (11758183_x_at) / Fold change /veh KRT8 (11758183_x_at) / RFU CNN1 (11734310_a_at) / Fold change /veh CNN1 (11734310_a_at) / RFU VPS37D (11726825_at) / Fold change /veh VPS37D (11726825_at) / RFU C10orf10 (11716522_x_at) / Fold change /veh C10orf10 (11716522_x_at) / RFU KIR2DL2 /// KIR2DL4 /// KIR2DL5A /// KIR2DL5B /// KIR2DS1 /// KIR2DS2 /// KIR2DS3 /// KIR2DS4 /// KIR3DL3 /// KIR3DL3 /// KIR3DS1 (11738374_at) / Fold change /veh KIR2DL2 /// KIR2DL4 /// KIR2DL5A /// KIR2DL5B /// KIR2DS1 /// KIR2DS2 /// KIR2DS3 /// KIR2DS4 /// KIR3DL3 /// KIR3DL3 /// KIR3DS1 (11738374_at) / RFU C1QL1 (11718748_at) / Fold change /veh C1QL1 (11718748_at) / RFU TMPRSS4 (11747572_a_at) / Fold change /veh TMPRSS4 (11747572_a_at) / RFU HAMP (11756126_x_at) / Fold change /veh HAMP (11756126_x_at) / RFU RNFT2 (11725882_a_at) / Fold change /veh RNFT2 (11725882_a_at) / RFU NR4A2 (11747474_a_at) / Fold change /veh NR4A2 (11747474_a_at) / RFU ABCC12 (11746883_a_at) / Fold change /veh ABCC12 (11746883_a_at) / RFU TMEM136 (11760407_x_at) / Fold change /veh TMEM136 (11760407_x_at) / RFU CLDN22 /// WWC2 (11732394_at) / Fold change /veh CLDN22 /// WWC2 (11732394_at) / RFU HLA-DPB1 (11760878_x_at) / Fold change /veh HLA-DPB1 (11760878_x_at) / RFU SPINT1 (11716480_a_at) / Fold change /veh SPINT1 (11716480_a_at) / RFU GAP43 (11754022_s_at) / Fold change /veh GAP43 (11754022_s_at) / RFU A4GNT (11735810_at) / Fold change /veh A4GNT (11735810_at) / RFU PRB3 (11715151_x_at) / Fold change /veh PRB3 (11715151_x_at) / RFU TUBB4B (11761932_at) / Fold change /veh TUBB4B (11761932_at) / RFU CAPN14 (11732068_a_at) / Fold change /veh CAPN14 (11732068_a_at) / RFU TMCC2 (11721928_a_at) / Fold change /veh TMCC2 (11721928_a_at) / RFU IRGQ (11745062_a_at) / Fold change /veh IRGQ (11745062_a_at) / RFU FAM174B (11720279_a_at) / Fold change /veh FAM174B (11720279_a_at) / RFU TMPRSS4 (11748680_a_at) / Fold change /veh TMPRSS4 (11748680_a_at) / RFU FAM212B (11763350_a_at) / Fold change /veh FAM212B (11763350_a_at) / RFU PLEKHG5 (11743358_a_at) / Fold change /veh PLEKHG5 (11743358_a_at) / RFU ZSCAN30 (11745921_a_at) / Fold change /veh ZSCAN30 (11745921_a_at) / RFU CMKLR1 (11741424_a_at) / Fold change /veh CMKLR1 (11741424_a_at) / RFU LOC101060620 /// MAPK8IP1 (11723275_at) / Fold change /veh LOC101060620 /// MAPK8IP1 (11723275_at) / RFU SPTSSB (11747773_x_at) / Fold change /veh SPTSSB (11747773_x_at) / RFU PRSS12 (11739890_at) / Fold change /veh PRSS12 (11739890_at) / RFU BIN1 (11741810_x_at) / Fold change /veh BIN1 (11741810_x_at) / RFU WNT11 (11732464_a_at) / Fold change /veh WNT11 (11732464_a_at) / RFU C10orf10 (11716521_a_at) / Fold change /veh C10orf10 (11716521_a_at) / RFU C5orf56 (11738089_at) / Fold change /veh C5orf56 (11738089_at) / RFU CYB561 (11721691_x_at) / Fold change /veh CYB561 (11721691_x_at) / RFU ANKRD19P (11752326_a_at) / Fold change /veh ANKRD19P (11752326_a_at) / RFU OR2T12 /// OR2T33 /// OR2T8 (11738714_s_at) / Fold change /veh OR2T12 /// OR2T33 /// OR2T8 (11738714_s_at) / RFU VCAN (11748164_a_at) / Fold change /veh VCAN (11748164_a_at) / RFU JSRP1 (11732532_at) / Fold change /veh JSRP1 (11732532_at) / RFU KRTAP10-11 (11738290_x_at) / Fold change /veh KRTAP10-11 (11738290_x_at) / RFU MYO3A (11730013_a_at) / Fold change /veh MYO3A (11730013_a_at) / RFU EBF3 (11725865_a_at) / Fold change /veh EBF3 (11725865_a_at) / RFU CAMK2N1 (11719241_x_at) / Fold change /veh CAMK2N1 (11719241_x_at) / RFU C5orf56 (11738088_a_at) / Fold change /veh C5orf56 (11738088_a_at) / RFU OLFML3 (11715873_a_at) / Fold change /veh OLFML3 (11715873_a_at) / RFU LOC100653217 /// NTM (11731650_a_at) / Fold change /veh LOC100653217 /// NTM (11731650_a_at) / RFU MAPK11 (11762145_a_at) / Fold change /veh MAPK11 (11762145_a_at) / RFU FIZ1 (11724087_x_at) / Fold change /veh FIZ1 (11724087_x_at) / RFU OASL (11726364_x_at) / Fold change /veh OASL (11726364_x_at) / RFU SOX15 (11748057_x_at) / Fold change /veh SOX15 (11748057_x_at) / RFU CD79A (11719716_a_at) / Fold change /veh CD79A (11719716_a_at) / RFU HIST1H1D (11736915_at) / Fold change /veh HIST1H1D (11736915_at) / RFU CASKIN2 (11723855_a_at) / Fold change /veh CASKIN2 (11723855_a_at) / RFU LOC730098 (11760151_x_at) / Fold change /veh LOC730098 (11760151_x_at) / RFU OR4N2 (11742367_at) / Fold change /veh OR4N2 (11742367_at) / RFU PRRT2 (11749266_a_at) / Fold change /veh PRRT2 (11749266_a_at) / RFU SNX32 (11753110_a_at) / Fold change /veh SNX32 (11753110_a_at) / RFU CDHR5 (11726645_a_at) / Fold change /veh CDHR5 (11726645_a_at) / RFU RCAN1 (11760418_a_at) / Fold change /veh RCAN1 (11760418_a_at) / RFU FAM167A (11723789_a_at) / Fold change /veh FAM167A (11723789_a_at) / RFU FAM26E (11764081_at) / Fold change /veh FAM26E (11764081_at) / RFU ISYNA1 (11749810_s_at) / Fold change /veh ISYNA1 (11749810_s_at) / RFU ACY1 (11761880_at) / Fold change /veh ACY1 (11761880_at) / RFU 11764098_at / Fold change /veh 11764098_at / RFU SAMD14 (11745864_x_at) / Fold change /veh SAMD14 (11745864_x_at) / RFU NPB (11741838_a_at) / Fold change /veh NPB (11741838_a_at) / RFU TMPRSS6 (11731388_a_at) / Fold change /veh TMPRSS6 (11731388_a_at) / RFU KRTAP10-2 (11738614_at) / Fold change /veh KRTAP10-2 (11738614_at) / RFU ARHGAP8 /// PRR5-ARHGAP8 (11727945_x_at) / Fold change /veh ARHGAP8 /// PRR5-ARHGAP8 (11727945_x_at) / RFU KRTAP5-7 /// NADSYN1 (11734609_at) / Fold change /veh KRTAP5-7 /// NADSYN1 (11734609_at) / RFU RASL12 (11751679_a_at) / Fold change /veh RASL12 (11751679_a_at) / RFU CDKN2B (11736163_a_at) / Fold change /veh CDKN2B (11736163_a_at) / RFU PRF1 (11729649_at) / Fold change /veh PRF1 (11729649_at) / RFU, ZNF638 /// ZNF638-IT1 / Fold change vs veh, ZNF638 /// ZNF638-IT1 / RFU, PANK3 / Fold change vs veh, PANK3 / RFU, SH3YL1 / Fold change vs veh, SH3YL1 / RFU, ZEB2 / Fold change vs veh, ZEB2 / RFU, NRIP1 / Fold change vs veh, NRIP1 / RFU, PTTG1IP / Fold change vs veh, PTTG1IP / RFU, CAPN2 / Fold change vs veh, CAPN2 / RFU, MED14 / Fold change vs veh, MED14 / RFU, SNORA58 / Fold change vs veh, SNORA58 / RFU, C1orf63 / Fold change vs veh, C1orf63 / RFU, LRRFIP1 / Fold change vs veh, LRRFIP1 / RFU, NDUFAF7 / Fold change vs veh, NDUFAF7 / RFU, SLC12A2 / Fold change vs veh, SLC12A2 / RFU, IBTK / Fold change vs veh, IBTK / RFU, ESF1 / Fold change vs veh, ESF1 / Fold change vs veh, TMEM50B / RFU, TAOK1 / Fold change vs veh, TAOK1 / RFU, ACBD3 / Fold change vs veh, ACBD3 / RFU, TMA16 / Fold change vs veh, TMA16 / RFU, RWDD3 / Fold change vs veh, RWDD3 / RFU, BCAT1 / Fold change vs veh, BCAT1 / RFU, EDEM3 / Fold change vs veh, EDEM3 / RFU, TMEM33 / Fold change vs veh, TMEM33 / RFU, WDR75 / Fold change vs veh, WDR75 / RFU, AHCTF1 / Fold change vs veh, AHCTF1 / RFU, TFRC / Fold change vs veh, TFRC / RFU, ZDHHC17 / Fold change vs veh, ZDHHC17 / RFU, NOM1 / Fold change vs veh, NOM1 / RFU, ARL8B / Fold change vs veh, ARL8B / RFU, ZBTB11 / Fold change vs veh, ZBTB11 / RFU, TAMM41 / Fold change vs veh, TAMM41 / RFU, KIAA1704 /// LOC100996395 / Fold change vs veh, KIAA1704 /// LOC100996395 / RFU, ING1 / Fold change vs veh, ING1 / RFU, TRMT61B / Fold change vs veh, TRMT61B / RFU, FUBP3 / Fold change vs veh, FUBP3 / RFU, TP53 / Fold change vs veh, TP53 / RFU, TNKS2 / Fold change vs veh, TNKS2 / RFU, ZFP14 / Fold change vs veh, ZFP14 / RFU, ACTR2 / Fold change vs veh, ACTR2 / RFU, PPP3R1 / Fold change vs veh, PPP3R1 / RFU, PIK3R1 / Fold change vs veh, PIK3R1 / RFU, HNRNPA1 / Fold change vs veh, HNRNPA1 / RFU, RNF170 / Fold change vs veh, RNF170 / RFU, ZNF28 / Fold change vs veh, ZNF28 / RFU, RNGTT / Fold change vs veh, RNGTT / RFU, OGT / Fold change vs veh, OGT / RFU, BRD1 / Fold change vs veh, BRD1 / RFU, MARS / Fold change vs veh, MARS / RFU, ZNF655 / Fold change vs veh, ZNF655 / RFU, FAHD1 / Fold change vs veh, FAHD1 / RFU, BDP1 / Fold change vs veh, BDP1 / RFU, LRRCC1 / Fold change vs veh, LRRCC1 / RFU, ARID1A / Fold change vs veh, ARID1A / RFU, ZNF146 / Fold change vs veh, ZNF146 / RFU, ZNF330 / Fold change vs veh, ZNF330 / RFU, GPN3 / Fold change vs veh, GPN3 / RFU, C9orf123 / Fold change vs veh, C9orf123 / RFU, N4BP2L2 / Fold change vs veh, N4BP2L2 / RFU, ARFIP1 / Fold change vs veh, ARFIP1 / RFU, FAM179B / Fold change vs veh, FAM179B / RFU, BCL10 / Fold change vs veh, BCL10 / RFU, UHRF1BP1L / Fold change vs veh, UHRF1BP1L / RFU, BET1 / Fold change vs veh, BET1 / RFU, CNOT2 / Fold change vs veh, CNOT2 / RFU, ZNF268 / Fold change vs veh, ZNF268 / Fold change vs veh, ZNF507 / RFU, DGCR2 / Fold change vs veh, DGCR2 / RFU, WDSUB1 / Fold change vs veh, WDSUB1 / Fold change vs veh, HSP90B1 /// MIR3652 / RFU, ADSS / Fold change vs veh, ADSS / RFU, GK / Fold change vs veh, GK / RFU, ZNF148 / Fold change vs veh, ZNF148 / RFU, TAF9 / Fold change vs veh, TAF9 / RFU, SLC1A5 / Fold change vs veh, SLC1A5 / RFU, SLMO2 / Fold change vs veh, SLMO2 / RFU, ABCC4 / Fold change vs veh, ABCC4 / RFU, LOC101060439 /// RAP1B / Fold change vs veh, LOC101060439 /// RAP1B / RFU, RFX7 / Fold change vs veh, RFX7 / RFU, GTPBP10 / Fold change vs veh, GTPBP10 / RFU, CNEP1R1 / Fold change vs veh, CNEP1R1 / RFU, BIVM-ERCC5 /// ERCC5 / Fold change vs veh, BIVM-ERCC5 /// ERCC5 / RFU, ILF3 / Fold change vs veh, ILF3 / RFU 11762660_at / Fold change /veh 11762660_at / RFU VCAN (11757783_s_at) / Fold change /veh VCAN (11757783_s_at) / RFU DDX43 (11728927_at) / Fold change /veh DDX43 (11728927_at) / RFU KRT8 (11758188_x_at) / Fold change /veh KRT8 (11758188_x_at) / RFU NKD1 (11759106_at) / Fold change /veh NKD1 (11759106_at) / RFU SRD5A1 (11742802_a_at) / Fold change /veh SRD5A1 (11742802_a_at) / RFU TPSAB1 /// TPSB2 (11721975_s_at) / Fold change /veh TPSAB1 /// TPSB2 (11721975_s_at) / RFU GSTM3 (11746129_a_at) / Fold change /veh GSTM3 (11746129_a_at) / RFU IL23R (11737362_x_at) / Fold change /veh IL23R (11737362_x_at) / RFU TMEM51 (11727254_a_at) / Fold change /veh TMEM51 (11727254_a_at) / RFU PIWIL2 (11732686_x_at) / Fold change /veh PIWIL2 (11732686_x_at) / RFU ORM1 (11744905_x_at) / Fold change /veh ORM1 (11744905_x_at) / RFU CCDC152 (11743942_at) / Fold change /veh CCDC152 (11743942_at) / RFU ECM1 (11717891_a_at) / Fold change /veh ECM1 (11717891_a_at) / RFU IL23R (11748794_a_at) / Fold change /veh IL23R (11748794_a_at) / RFU TNFAIP8L3 (11732012_x_at) / Fold change /veh TNFAIP8L3 (11732012_x_at) / RFU MBOAT4 (11741988_at) / Fold change /veh MBOAT4 (11741988_at) / RFU 11764193_at / Fold change /veh 11764193_at / RFU TMEM53 (11763286_at) / Fold change /veh TMEM53 (11763286_at) / RFU MAGEB2 (11727129_at) / Fold change /veh MAGEB2 (11727129_at) / RFU TMEM200A (11744735_a_at) / Fold change /veh TMEM200A (11744735_a_at) / RFU CCDC152 (11751479_a_at) / Fold change /veh CCDC152 (11751479_a_at) / RFU FAM211A (11726209_a_at) / Fold change /veh FAM211A (11726209_a_at) / RFU RGS16 (11746705_a_at) / Fold change /veh RGS16 (11746705_a_at) / RFU VCAN (11755009_s_at) / Fold change /veh VCAN (11755009_s_at) / RFU RHOB (11743442_s_at) / Fold change /veh RHOB (11743442_s_at) / RFU RGS16 (11720943_a_at) / Fold change /veh RGS16 (11720943_a_at) / RFU RGS16 (11720944_at) / Fold change /veh RGS16 (11720944_at) / RFU, VPS4B / Fold change vs veh, VPS4B / RFU, CREB1 / Fold change vs veh, CREB1 / RFU, DNAJC13 / Fold change vs veh, DNAJC13 / RFU, GNAQ / Fold change vs veh, GNAQ / RFU, CDK5R1 / Fold change vs veh, CDK5R1 / RFU, ZRANB3 / Fold change vs veh, ZRANB3 / RFU, CUL4A / Fold change vs veh, CUL4A / RFU, CCNY / Fold change vs veh, CCNY / RFU, UFL1 / Fold change vs veh, UFL1 / RFU, COG3 / Fold change vs veh, COG3 / RFU, DIAPH2 / Fold change vs veh, DIAPH2 / RFU, SKA2 / Fold change vs veh, SKA2 / RFU, AFF3 / Fold change vs veh, AFF3 / RFU, LMF1 / Fold change vs veh, LMF1 / RFU, IPO11 / Fold change vs veh, IPO11 / RFU, DFFB / Fold change vs veh, DFFB / RFU, FOXP1 / Fold change vs veh, FOXP1 / RFU, CARD8 / Fold change vs veh, CARD8 / RFU, STRN3 / Fold change vs veh, STRN3 / RFU, ADK / Fold change vs veh, ADK / RFU, RASSF2 / Fold change vs veh, RASSF2 / RFU, WIPF1 / Fold change vs veh, WIPF1 / RFU, LARP1B / Fold change vs veh, LARP1B / RFU, RASA1 / Fold change vs veh, RASA1 / RFU, RB1 / Fold change vs veh, RB1 / RFU, PPFIA1 / Fold change vs veh, PPFIA1 / RFU, MAT2A / Fold change vs veh, MAT2A / RFU, CCT5 / Fold change vs veh, CCT5 / RFU, WDR92 / Fold change vs veh, WDR92 / RFU, CUX1 / Fold change vs veh, CUX1 / RFU, TTC7A / Fold change vs veh, TTC7A / RFU, TMEM135 / Fold change vs veh, TMEM135 / RFU, DEPTOR / Fold change vs veh, DEPTOR / RFU, CPM / Fold change vs veh, CPM / RFU, DNAJB6 / Fold change vs veh, DNAJB6 / RFU, CACNA2D3 / Fold change vs veh, CACNA2D3 / RFU, DTX4 / Fold change vs veh, DTX4 / RFU, TFCP2 / Fold change vs veh, TFCP2 / RFU, GMCL1 /// GMCL1P1 / Fold change vs veh, GMCL1 /// GMCL1P1 / RFU, AEBP2 / Fold change vs veh, AEBP2 / RFU, SNHG1 /// SNORD22 /// SNORD25 /// SNORD26 /// SNORD27 /// SNORD28 /// SNORD29 /// SNORD31 / Fold change vs veh, SNHG1 /// SNORD22 /// SNORD25 /// SNORD26 /// SNORD27 /// SNORD28 /// SNORD29 /// SNORD31 / Fold change (Aza/veh), C12orf56 (ProbeSet 11735607_a_at) / Fold change (ACY-1035/veh), C12orf56 (ProbeSet 11735607_a_at) / Fold change (Aza/veh), FGFR1OP (ProbeSet 11751329_s_at) / Fold change (ACY-1035/veh), FGFR1OP (ProbeSet 11751329_s_at) / Fold change (Aza/veh), VPS36 (ProbeSet 11739960_a_at) / Fold change (ACY-1035/veh), VPS36 (ProbeSet 11739960_a_at) / RFU SYPL1 (11715823_x_at) / Fold change /veh SYPL1 (11715823_x_at) / RFU IGFBP7 (11715501_s_at) / Fold change /veh IGFBP7 (11715501_s_at) / RFU REEP3 (11722064_at) / Fold change /veh REEP3 (11722064_at) / RFU IGLL1 (11728026_x_at) / Fold change /veh IGLL1 (11728026_x_at): dose or concentration left out as unconfirmed
Settings: ProbeSet 11717308_a_at; LIST B

Nc1ncn([C@@H]2O[C@H](CO)[C@@H](O)[C@H]2O)c(=O)n1 [azacitidine]
Fold change vs veh, WDR75: 1.10
